{
  "source": "patent US10472395B2",
  "about": "“Cyclic peptide analogs and conjugates thereof” (Sirenas LLC, priority 2015, dated 2019)",
  "key": {"HeLa S3 cells": {"test_system": "HeLa S3 cells", "settings": "K. Suenaga et al., Bioorg. Med. Chem. Lett. 2008, 18, 3902-3905; cited from earlier work"}, "[1]": {"test_system": "BT-474 human mammary gland ductal carcinoma cells", "experiment": "Inhibitory response of test compounds against BT-474 cells (Cell Titer-Glo, 72 h)", "assay_type": "cell-based", "experimental": "(§1) BT-474 human mammary gland ductal carcinoma cells were seeded in a clear polystyrene 96-well microculture plate (Corning® Costar® 96-well flat bottom plate, Cat.#3997) in a total volume of 90 μL/well. After 24 hours of incubation in a humidified incubator at 37° C. with 5% CO2 and 95% air, 10 μL of 10×, serially diluted test agents in growth medium were added to each well (10 pt dose response curve, highest concentration 10 μM of test agent). After 72 hours of culture in a humidified incubator at 37° C., in an atmosphere of 5% CO2 and 95% air, the plated cells and Cell Titer-Glo® (Promega G7571) reagents were brought to room temperature to equilibrate for 30 minutes. 100 μL of Cell Titer-Glo® reagent was added to each well. The plate was shaken for two minutes and then left to equilibrate for ten minutes. The media/Cell Titer-Glo® reagent was transferred to a white polystyrene 96-well microculture plate (Corning® Costar® 96-well flat bottom plate, Cat.#3917) before reading luminescence on a Tecan GENios microplate reader.\n(§2) Percent inhibition of cell growth was calculated relative to untreated control wells. The IC50 value for the test agents was determined using Prism 6.05 by curve-fitting of the data using the following four parameter-logistic equation:\n(§3) [formula] where Top is the maximal % of control absorbance, Bottom is the minimal % of control absorbance at the highest agent concentration, Y is the % of control absorbance, X is the agent concentration, IC50 is the concentration of agent that inhibits cell growth by 50% compared to the control cells, and n is the slope of the curve."}, "HCC1954 cells": {"test_system": "HCC1954 cells", "experiment": "Inhibitory response of test compounds against HCC1954 cells (method analogous to BT-474)", "assay_type": "cell-based", "experimental": "as §1, §2, §3\nInhibitory response of test compounds against HCC1954 cells was determined using a method analogous to that used for BT-474 cells."}, "[2]": {"test_system": "several cancer cell lines", "settings": "Y. Nakao et al., J. Nat. Prod. 2004, 67, 1332-1340; cited from earlier work"}},
  "note": "pIC50: −log10 of the molar value. Read-outs that look alike come from different tables or passages of the source. Numbered stars: 1 amine (or outer) side, 2 acyl side, 3 side chain; on linkers, the order of the positions; unused ones are H or OH. Bridge positions count the residues as written; N and C are the ends. Square brackets hold non-standard residues; d marks the D form. Peptide text beside a SMILES is read from it. X12 = CC/C=C(\\C)[C@@H](O[*:2])[C@@H](C)[C@@H](O)C/C=C(\\C)C(=O)[*:1]; Hmp(2R,3S) = CC[C@H](C)[C@@H](O)C(=O)O; dNMeL = CN[C@H](CC(C)C)C(=O)O; NMeA = CN[C@@H](C)C(=O)O; Sar = CNCC(=O)O",
  "data": [
    {"smiles": "CC/C=C(\\C)[C@H]1OC(=O)[C@H](C)N(C)C(=O)[C@H](C(C)C)NC(=O)CN(C)C(=O)[C@@H](CC(C)C)N(C)C(=O)[C@H](C(C)C)NC(=O)[C@@H]([C@@H](C)CC)OC(=O)/C(C)=C/C[C@H](O)[C@@H]1C", "note": "[Aurilide, aurilide] ([Hmp(2R,3S)]V[dNMeL][Sar]V[NMeA]; linker N-C via X12)", "values": [
      {"measurement": "cytotoxicity against HeLa S3 cells", "setting": "HeLa S3 cells", "result": "potent cytotoxicity"}
    ]},
    {"smiles": "C/C=C(\\C)[C@H]1OC(=O)[C@@H](C)NC(=O)[C@H]([C@H](C)CC)NC(=O)CN(C)C(=O)[C@@H](Cc2ccc(Cl)cc2)N(C)C(=O)[C@H](CCCCN)NC(=O)[C@@H](CC(C)C)OC(=O)/C(C)=C/CC[C@@H]1C", "note": "[Compound 118]", "values": [
      {"measurement": "pIC50", "setting": "[1]; Homo sapiens", "result": "5.00 to 6.70"},
      {"measurement": "pIC50", "setting": "HCC1954 cells; Homo sapiens", "result": "5.00 to 6.70"}
    ]},
    {"smiles": "C/C=C(\\C)[C@H]1OC(=O)[C@@H](C)NC(=O)[C@H]([C@H](C)CC)NC(=O)CN(C)C(=O)[C@@H](Cc2ccc(Cl)cc2)N(C)C(=O)[C@H](CCCCNC(=O)OC(C)(C)C)NC(=O)[C@@H](CC(C)C)OC(=O)/C(C)=C/CC[C@@H]1C", "note": "[Compound 119]", "values": [
      {"measurement": "pIC50", "setting": "[1]; Homo sapiens", "result": "> 7.70"},
      {"measurement": "pIC50", "setting": "HCC1954 cells; Homo sapiens", "result": "> 7.70"}
    ]},
    {"smiles": "C/C=C(\\C)[C@H]1OC(=O)[C@@H](C)NC(=O)[C@H](C(C)CC)NC(=O)CN(C)C(=O)[C@@H](Cc2ccccc2)N(C)C(=O)[C@H](C)NC(=O)[C@@H](CC(C)C)OC(=O)/C(C)=C/C[C@H](CC(=O)NCCOCCOCCOCCO)[C@@H]1C", "note": "(some centres unmarked) [Compound 122]", "values": [
      {"measurement": "pIC50", "setting": "[1]; Homo sapiens", "result": "> 7.70"},
      {"measurement": "pIC50", "setting": "HCC1954 cells; Homo sapiens", "result": "6.70 to 7.70"}
    ]},
    {"smiles": "C/C=C(\\C)[C@H]1OC(=O)[C@@H](C)NC(=O)[C@H](C(C)CC)NC(=O)CN(C)C(=O)[C@@H](Cc2ccccc2)N(C)C(=O)[C@H](C)NC(=O)[C@@H](CC(C)C)OC(=O)/C(C)=C/C[C@H](OC(=O)NCCO)[C@@H]1C", "note": "(some centres unmarked) [Compound 123]", "values": [
      {"measurement": "pIC50", "setting": "[1]; Homo sapiens", "result": "> 7.70"},
      {"measurement": "pIC50", "setting": "HCC1954 cells; Homo sapiens", "result": "> 7.70"}
    ]},
    {"smiles": "C/C=C(\\C)[C@H]1OC(=O)[C@@H](C)NC(=O)[C@H](C(C)CC)NC(=O)CN(C)C(=O)[C@@H](Cc2c[nH]c3ccccc23)N(C)C(=O)[C@H](C)NC(=O)[C@@H](CC(C)C)OC(=O)/C(C)=C/C[C@H](O)[C@@H]1C", "note": "(some centres unmarked) [Compound 125]", "values": [
      {"measurement": "pIC50", "setting": "[1]; Homo sapiens", "result": "> 7.70"},
      {"measurement": "pIC50", "setting": "HCC1954 cells; Homo sapiens", "result": "6.70 to 7.70"}
    ]},
    {"smiles": "C/C=C(\\C)[C@H]1OC(=O)[C@@H](C)NC(=O)[C@H](C(C)CC)NC(=O)CN(C)C(=O)[C@@H](Cc2ccccc2)N(C)C(=O)[C@H](C)NC(=O)[C@@H](CC(C)C)OC(=O)/C(C)=C/C[C@H](OC(=O)NCCCOCCOCCOCCCNC(=O)CCSSc2ccccn2)[C@@H]1C", "note": "(some centres unmarked) [Compound L12]", "values": [
      {"measurement": "pIC50", "setting": "[1]", "result": "5.00 to 6.70"},
      {"measurement": "pIC50", "setting": "HCC1954 cells", "result": "< 5.00"}
    ]},
    {"smiles": "C/C=C(\\C)[C@H]1OC(=O)[C@@H](C)NC(=O)[C@H](C(C)CC)NC(=O)CN(C)C(=O)[C@@H](Cc2ccccc2)N(C)C(=O)[C@H](C)NC(=O)[C@@H](CC(C)C)OC(=O)/C(C)=C/C[C@H](O)[C@@H]1C", "note": "(some centres unmarked) [Kulo-2, kulo-2, reference compound]", "values": [
      {"measurement": "pIC50", "setting": "[1]; Homo sapiens", "result": "> 7.70"},
      {"measurement": "pIC50", "setting": "[1]; Homo sapiens, 72 h, Cell Titer-Glo", "result": 8.75},
      {"measurement": "pIC50", "setting": "HCC1954 cells; Homo sapiens", "result": "> 7.70"},
      {"measurement": "cytotoxicity against several cancer cell lines", "setting": "[2]", "result": "potent cytotoxicity"}
    ]}
  ]
}
